The results in this text go back to ChEMBL document CHEMBL1158808, “Eunicellin-based diterpenoids, australins A-D, isolated from the soft coral Cladiella australis” (2005).

Holding throughout (format): functional
The subject of one assay is MDA-MB-231. Briefly: Cytotoxicity against human MDA-MB-231 cells after 6 days by MTT assay. Particulars: MDA-MB-231, 144 h, read-out: ED50 (the source's name).
The subject of another assay is MCF7. Briefly: Cytotoxicity against human MCF7 cells after 6 days by MTT assay. Conditions: MCF7, 144 h, read-out: ED50 (the source's name).
In a further assay the test system is HepG2. Briefly: Cytotoxicity against human HepG2 cells after 6 days by MTT assay in presence of DMEM12. Conditions: HepG2, 144 h, read-out: ED50 (the source's name). For orientation: Tetrazolium dyes change colour on reduction, which living cells bring about.

≈ marks a conversion by molar mass, not a printed value.

On to `C=C1C[C@@]2(O)O[C@H]([C@@H]3[C@@H](C(C)C)CC[C@@](C)(OC(=O)CCC)[C@@H]32)[C@](C)(O)CC[C@@H]1OC(C)=O` [AUSTARLIN B], for which the EC50 in the assay on MDA-MB-231 was 6.4 µg/mL (≈ 13.7 µM); in the assay on MCF7, 8.6 µg/mL (≈ 18.4 µM); with HepG2, 2.4 µg/mL.

As to `C=C1CC[C@H]([C@@H](C)CO)[C@@H]2[C@H]1C(=O)C[C@@](C)(O)[C@H]1CC[C@@](C)(OC(=O)CCC)[C@@H]2O1` [AUSTARLIN D], in the assay with MDA-MB-231, the EC50 worked out at 24.4 µg/mL (≈ 57.7 µM).
